The structures appear in SMILES notation. Where “and” joins values, the source holds several entries; their conditions need not be identical. Equal entries are not always repeated.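 Step 1: Grow cells in 96-well plates. Step 2: Expose to compound for 48 hours at 5 concentrations. Step 3: Interpolate endpoints linearly; if unreached, use highest concentration. GI50 is the concentration that inhibits growth by half. The concentration for full growth arrest is given as TGI.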 Bounds are passed on as bounds.

For this test, the system named is MDA-MB-468 breast. Description: NCI-60 cell line screen, 48 h.
As to `Cc1csc(Nc2nc(-c3cccc(Cl)c3)nc(C(Cl)(Cl)Cl)n2)n1`, the GI50 is 0.728 µM and the TGI came out at 2.18 µM.
In the case of `O=c1[nH]c(-c2ccccn2)nc2sc3c(c12)CCCCCC3`, the GI50 is 1.66 µM and the TGI was more than 100 µM.
For `N#Cc1ccc(N2Cc3cc(Cl)ccc3OC3=C2C(=O)N(Cc2ccccc2)C3=O)cc1`, the GI50 was 1.22 µM and the TGI was determined as 3.26 µM.
Turning to `C#Cc1cccc(Nc2ncnc3ccc(-c4cncc(NS(C)(=O)=O)c4)cc23)c1`, the GI50 was 0.208 µM and the TGI was determined as 0.731 µM.
In the same order, the values of `CCN(CC)CCOc1ccc(C2=C(c3ccccc3)CCc3cc(OC)ccc32)cc1` are 0.138 µM and 0.418 µM.
Regarding `COC(=O)Nc1nc2ccc(Sc3ccc(NC(=O)Nc4cc(C(F)(F)F)ccc4F)cc3)cc2[nH]1`, the GI50 was 0.882 µM and the TGI came out at 4.75 µM.
In the same order, the values of `C=CC[PH+](c1ccccc1)c1ccccc1.C=CC[PH+](c1ccccc1)c1ccccc1.[Cl][Pt][Cl]` are 2.64 µM and 7.1 µM.
In the case of `CCCCCCN(CCCCCC)CC(O)c1cccc2ccc(Cl)cc12` (stereo not drawn), the GI50 was 3.19 µM and the TGI was determined as 14.6 µM.
With `CCOc1cccnc1/C=N/NC(N)=S`, the GI50 was 2.54 µM and the TGI amounted to 13.3 µM.
For `CCCCCCCCCCCCCCCCCC1=NC(C)(C)CN1CCO`, the GI50 was 1.59 µM and the TGI worked out at 3.04 µM.
For the compound `Cc1ccc(OCCCCCCNCCO)c(C)c1`, the GI50 was 8.48 µM and the TGI worked out at 23.6 µM.
For `COc1ncnc2c(-c3ccco3)cn(COCc3ccccc3)c12` the same measures were 2.4 µM and more than 50 µM.
In the case of `O=c1c2cc(F)ccc2sc2c(NCCCN3CCCC3)nc3ccccc3c12`, the GI50 was 1.17 µM and the TGI was 2.67 µM.
For the compound `CC1(C)CC2(C)OC2C2(C1)N=NC(=Nc1ccccc1)O2` (stereo not drawn), the GI50 is 2.47 µM and the TGI stood at 7.28 µM.
Turning to `CC(C)C[C@H](NC(=O)[C@@H](O)[C@H](N)Cc1ccccc1)C(=O)O`, the GI50 is 53.4 µM and the TGI is more than 100 µM.
Turning to `COc1cc(OC)c(/C=C/S(=O)(=O)Cc2ccc(OC)c(NCC(=O)O)c2)c(OC)c1`, the GI50 is 0.121 µM and 0.187 µM; the TGI is more than 100 µM.
As for `CCCCCCCCCCCCNC(=O)[C@H]1CSC(c2ccc(OC)c(F)c2)N1` (stereo partly drawn), the GI50 is 1.28 µM and the TGI stood at 2.82 µM.
For the compound `CC(C)(C)c1cc(C(=O)Nc2cc3ccccc3cc2C(=O)NCCN)cc(C(C)(C)C)c1`, the GI50 is 0.347 µM and the TGI was determined as 0.989 µM.
On to `Cn1cc(-c2nn3cc(-c4cccs4)nc3s2)c2cc(F)ccc21`, for which the GI50 was 1.44 µM and the TGI was found to be 5.47 µM.
For the compound `COc1ccc(S(=O)(=O)NCCNc2nccc(-c3c(-c4ccccc4)nc4sccn34)n2)cc1`, the GI50 was 3.03 µM and the TGI was more than 100 µM.
Regarding `Cn1c(COC(=O)NCCN2CCOCC2)nc2c(N3CCOCC3)nc(-c3ccccc3)nc21`, the GI50 is 1.14 µM and the TGI was 2.95 µM.
In the same order, the values of `C=C(C)[C@@H]1CCC[C@]2(C(=O)O)CC[C@]3(C)[C@@H](CC[C@@H]4[C@@]5(C)C/C(=C/c6ccncc6)C(=O)C(C)(C)[C@@H]5CC[C@]43C)[C@@H]12` are 2.1 µM and 5.49 µM.
In the same order, the values of `COc1cc(OC)cc(N2CCN(C(=O)Nc3nc4cc(F)ccc4nc3OC)CC2)c1` are 0.0283 µM and 65.1 µM.
`C[C@]12CC[C@@H]3c4ccc(O)cc4CC[C@H]3[C@@H]1CC[C@@H]2NS(=O)(=O)c1ccc(-c2ccccc2)cc1`: the GI50 is 2.96 µM and the TGI was determined as 38.8 µM.
For `COc1ccc(N=C2NN=C(c3c[nH]c4ccccc34)CS2)cc1OC`, the GI50 was 14.6 µM and the TGI is more than 60.5 µM.
`CC(C)n1nc(C#Cc2cccc(NC(=O)c3cccc(C(F)(F)F)c3)c2)c2c(N)ncnc21`: the GI50 was 4.54 µM and the TGI was 28.4 µM.
In the case of `COc1cc(/C=C\c2cccnc2Nc2ccccc2)cc(OC)c1OC`, the GI50 is 6.77 µM and the TGI was determined as 48.7 µM.
In the same order, the values of `CCNC(=O)Oc1ccc(/C(=C(\C)c2ccc(Cl)cc2)c2ccc(OCCN3CCCCC3)cc2)cc1` are 2.66 µM and 9.5 µM.
Consider `CN(C)c1ccc(Sc2ccc3nc(N)nc(N)c3c2)cc1`, for which the GI50 was 0.909 µM and the TGI came to 2.65 µM.
On to `CC(C)(C)c1ccc(S(=O)(=O)N[C@H]2CC[C@H]3[C@@H]4CCc5cc(O)ccc5[C@H]4CC[C@]23C)cc1`, for which the GI50 is 2.74 µM and the TGI was 9.6 µM.
`O=c1[nH]c2cc(O)ccc2n2cc3c(F)cccc3c12`: the GI50 was 1.36 µM and the TGI is more than 100 µM.
`O=[N+]([O-])c1cccc(-c2ncc(-c3ccc(Cl)cc3Cl)[nH]2)c1`: the GI50 is 1.63 µM and the TGI is 3.54 µM.
In the case of `CC(=O)Nc1ccc(-n2cnc3cc(-c4ccc(OCCN5CCCCC5)cc4)ccc32)cc1`, the GI50 is 5.64 µM and the TGI came to 14.1 µM.
In the same order, the values of `C[C@H](NC(=O)CCC(F)(F)F)C(=O)N[C@@H]1C(=O)N(CCO)c2ncccc2-c2ccccc21` are more than 100 µM and more than 100 µM.
With `COc1ccc(-n2nc(C)c3c2N(C)C2(C)C[C@@H]4C3(C)[C@@H]3CC4(C2)N(C)c2c(c(C)nn2-c2ccc(OC)cc2)[C@H]3C)cc1` (stereo partly drawn), the GI50 is 4.76 µM and the TGI worked out at 64.8 µM.
`CCCCCCN1C(=O)CN=C1Nc1ccc2cc3ccc(NC4=NCC(=O)N4CCCCCC)cc3nc2c1`: the GI50 is 1.64 µM and the TGI worked out at 3.4 µM.
Take `O=C(Nc1ccccc1)Nc1ccccc1CNc1nc(Nc2ccc(OCCN3CCCC3)cc2)ncc1Cl`: the GI50 is 1.96 µM and the TGI is 9.4 µM.
As to `COc1ccc(N(Cc2cc(OC)c(OC)c(OC)c2)C2OC(=O)c3ccccc32)cc1` (stereo not drawn), the GI50 was 0.328 µM and the TGI is more than 100 µM.
As to `C#Cc1ccc(-n2c(/C=C/c3cc(OC)c(OC)c(OC)c3)nc3ncccc3c2=O)cc1`, the GI50 is 2.83 µM and the TGI was more than 100 µM.
Take `Cc1cnc2[nH]c(-c3ccccc3)cc(=O)c2c1`: the GI50 was 24.6 µM and the TGI was more than 100 µM.
Regarding `C#Cc1nc(C2=C(C)C(O)/C(=N/O)C2)cs1` (stereo not drawn), the GI50 is 17.6 µM and the TGI is more than 100 µM.
`COc1cc(C(=O)N/N=C/c2cccc([N+](=O)[O-])c2)cc(OC)c1OC`: the GI50 is 2.77 µM and the TGI is 14 µM.
In the same order, the values of `Cc1cc(N)c2ccccc2[n+]1CCCCCCCCCC[n+]1c(C)cc(N)c2ccccc21` are 0.0647 µM and 0.245 µM.
In the same order, the values of `CC(=O)N[C@@H]1CCC[C@H](C(=O)Nc2cc(-c3cnn4c3CC(C)(C)C4)c(Cl)cn2)C1` are less than 0.01 µM and 0.049 µM.

The values are drawn from PubChem BioAssay (NCI).
